{"source": "ChEMBL document CHEMBL1201862", "about": "“PubChem BioAssay data set” (2004)", "experiment_in_all_cases": "NCI-60 cell line screen, 48 h", "key": {"786-0": {"tested_on": "786-0"}, "A498": {"tested_on": "A498"}, "A549": {"tested_on": "A549"}, "ACHN": {"tested_on": "ACHN"}, "CAKI-1": {"tested_on": "CAKI-1"}, "CCRF-CEM": {"tested_on": "CCRF-CEM"}, "COLO 205": {"tested_on": "COLO 205"}, "DU-145": {"tested_on": "DU-145"}, "EKVX": {"tested_on": "EKVX"}, "HCT-116": {"tested_on": "HCT-116"}, "HCT-15": {"tested_on": "HCT-15"}, "HOP-62": {"tested_on": "HOP-62"}, "HOP-92": {"tested_on": "HOP-92"}, "HT-29": {"tested_on": "HT-29"}, "Hs-578T": {"tested_on": "Hs-578T"}, "IGROV-1": {"tested_on": "IGROV-1"}, "K562": {"tested_on": "K562"}, "KM12": {"tested_on": "KM12"}, "LOX IMVI": {"tested_on": "LOX IMVI"}, "M14": {"tested_on": "M14"}, "MCF7": {"tested_on": "MCF7"}, "MDA-MB-231": {"tested_on": "MDA-MB-231"}, "MDA-MB-435": {"tested_on": "MDA-MB-435"}, "MDA-N": {"tested_on": "MDA-N"}, "MOLT-4": {"tested_on": "MOLT-4"}, "Malme-3M": {"tested_on": "Malme-3M"}, "NCI-H226": {"tested_on": "NCI-H226"}, "NCI-H23": {"tested_on": "NCI-H23"}, "NCI-H460": {"tested_on": "NCI-H460"}, "NCI/ADR-RES": {"tested_on": "NCI/ADR-RES"}, "OVCAR-3": {"tested_on": "OVCAR-3"}, "OVCAR-4": {"tested_on": "OVCAR-4"}, "OVCAR-5": {"tested_on": "OVCAR-5"}, "OVCAR-8": {"tested_on": "OVCAR-8"}, "PC-3": {"tested_on": "PC-3"}, "RPMI-8226": {"tested_on": "RPMI-8226"}, "RXF 393": {"tested_on": "RXF 393"}, "SF-268": {"tested_on": "SF-268"}, "SF-295": {"tested_on": "SF-295"}, "SF-539": {"tested_on": "SF-539"}, "SK-MEL-28": {"tested_on": "SK-MEL-28"}, "SK-MEL-2": {"tested_on": "SK-MEL-2"}, "SK-MEL-5": {"tested_on": "SK-MEL-5"}, "SK-OV-3": {"tested_on": "SK-OV-3"}, "SN12C": {"tested_on": "SN12C"}, "SNB-19": {"tested_on": "SNB-19"}, "SNB-75": {"tested_on": "SNB-75"}, "SR": {"tested_on": "SR"}, "SW-620": {"tested_on": "SW-620"}, "T47D": {"tested_on": "T47D"}, "TK-10": {"tested_on": "TK-10"}, "U-251": {"tested_on": "U-251"}, "UACC-257": {"tested_on": "UACC-257"}, "UACC-62": {"tested_on": "UACC-62"}, "UO-31": {"tested_on": "UO-31"}}, "note": "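Cells were grown in 96-well plates and exposed to each compound for 48 hours at five concentrations; endpoints were interpolated linearly between bracketing concentrations, or set to the highest concentration if not reached. At the GI50, growth is halved.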 Active and inactive are the calls of the source. No stated cut-off is given here; in the data, active = GI50 up to about 1.1 µM and inactive = higher.", "data": [{"smiles": "CCOC(=O)[C@@]12C[C@](/C=C/OC)(O[Si](C)(C)C)[C@@]13c1cc(OC)c(OC)cc1CCN3C(=O)C2O", "note": "(stereo not given in full)", "values": [{"measurement": "GI50", "setting": "786-0", "value": "> 100 µM (inactive)"}, {"measurement": "GI50", "setting": "A498", "value": "> 100 µM (inactive)"}, {"measurement": "GI50", "setting": "A549", "value": "> 100 µM (inactive)"}, {"measurement": "GI50", "setting": "ACHN", "value": "> 100 µM (inactive)"}, {"measurement": "GI50", "setting": "CAKI-1", "value": "> 100 µM (inactive)"}, {"measurement": "GI50", "setting": "CCRF-CEM", "value": "> 100 µM (inactive)"}, {"measurement": "GI50", "setting": "COLO 205", "value": "> 100 µM (inactive)"}, {"measurement": "GI50", "setting": "DU-145", "value": "> 100 µM (inactive)"}, {"measurement": "GI50", "setting": "EKVX", "value": "> 100 µM (inactive)"}, {"measurement": "GI50", "setting": "HCT-116", "value": "> 100 µM (inactive)"}, {"measurement": "GI50", "setting": "HCT-15", "value": "> 100", "unit": "µM"}, {"measurement": "GI50", "setting": "HOP-62", "value": "> 100 µM (inactive)"}, {"measurement": "GI50", "setting": "HOP-92", "value": "> 100 µM (inactive)"}, {"measurement": "GI50", "setting": "HT-29", "value": "> 100 µM (inactive)"}, {"measurement": "GI50", "setting": "Hs-578T", "value": "5.98 µM (inactive)"}, {"measurement": "GI50", "setting": "IGROV-1", "value": "> 100 µM (inactive)"}, {"measurement": "GI50", "setting": "K562", "value": "> 100 µM (inactive)"}, {"measurement": "GI50", "setting": "KM12", "value": "> 100 µM (inactive)"}, {"measurement": "GI50", "setting": "LOX IMVI", "value": "> 100 µM (inactive)"}, {"measurement": "GI50", "setting": "M14", "value": "> 100 µM (inactive)"}, {"measurement": "GI50", "setting": "MCF7", "value": "> 100 µM (inactive)"}, {"measurement": "GI50", "setting": "MDA-MB-231", "value": "> 100 µM (inactive)"}, {"measurement": "GI50", "setting": "MDA-MB-435", "value": "> 100 µM (inactive)"}, {"measurement": "GI50", "setting": "MDA-N", "value": "> 100 µM (inactive)"}, {"measurement": "GI50", "setting": "MOLT-4", "value": "> 100 µM (inactive)"}, {"measurement": "GI50", "setting": "Malme-3M", "value": "> 100 µM (inactive)"}, {"measurement": "GI50", "setting": "NCI-H226", "value": "> 100 µM (inactive)"}, {"measurement": "GI50", "setting": "NCI-H23", "value": "> 100 µM (inactive)"}, {"measurement": "GI50", "setting": "NCI-H460", "value": "> 100 µM (inactive)"}, {"measurement": "GI50", "setting": "NCI/ADR-RES", "value": "> 100 µM (inactive)"}, {"measurement": "GI50", "setting": "OVCAR-3", "value": "> 100 µM (inactive)"}, {"measurement": "GI50", "setting": "OVCAR-4", "value": "> 100 µM (inactive)"}, {"measurement": "GI50", "setting": "OVCAR-5", "value": "> 100 µM (inactive)"}, {"measurement": "GI50", "setting": "OVCAR-8", "value": "> 100 µM (inactive)"}, {"measurement": "GI50", "setting": "PC-3", "value": "> 100 µM (inactive)"}, {"measurement": "GI50", "setting": "RPMI-8226", "value": "> 100 µM (inactive)"}, {"measurement": "GI50", "setting": "RXF 393", "value": "> 100 µM (inactive)"}, {"measurement": "GI50", "setting": "SF-268", "value": "> 100 µM (inactive)"}, {"measurement": "GI50", "setting": "SF-295", "value": "> 100 µM (inactive)"}, {"measurement": "GI50", "setting": "SF-539", "value": "> 100 µM (inactive)"}, {"measurement": "GI50", "setting": "SK-MEL-28", "value": "> 100 µM (inactive)"}, {"measurement": "GI50", "setting": "SK-MEL-2", "value": "> 100 µM (inactive)"}, {"measurement": "GI50", "setting": "SK-MEL-5", "value": "38.5 µM (inactive)"}, {"measurement": "GI50", "setting": "SK-OV-3", "value": "> 100 µM (inactive)"}, {"measurement": "GI50", "setting": "SN12C", "value": "> 100 µM (inactive)"}, {"measurement": "GI50", "setting": "SNB-19", "value": "> 100 µM (inactive)"}, {"measurement": "GI50", "setting": "SNB-75", "value": "47.6 µM (inactive)"}, {"measurement": "GI50", "setting": "SR", "value": "> 100 µM (inactive)"}, {"measurement": "GI50", "setting": "SW-620", "value": "> 100 µM (inactive)"}, {"measurement": "GI50", "setting": "T47D", "value": "> 100 µM (inactive)"}, {"measurement": "GI50", "setting": "TK-10", "value": "> 100 µM (inactive)"}, {"measurement": "GI50", "setting": "U-251", "value": "> 100 µM (inactive)"}, {"measurement": "GI50", "setting": "UACC-257", "value": "> 100 µM (inactive)"}, {"measurement": "GI50", "setting": "UACC-62", "value": "46.9 µM (inactive)"}, {"measurement": "GI50", "setting": "UO-31", "value": "> 100 µM (inactive)"}]}]}
